# Measured values reported in ChEMBL document CHEMBL1201862, “PubChem BioAssay data set” (2004).
#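 1) Cells in 96-well plates. 2) Compound, 48 h, 5 concentrations. 3) Linear interpolation between surrounding doses. 4) Unreached endpoint = highest concentration. GI50 = concentration required for 50% inhibition of growth.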 The source made the active and inactive calls. No stated cut-off is given here; in the data, active = GI50 up to about 1.1 µM and inactive = higher.
# Columns and labels:
# Test in all cases: growth of human tumour cells (NCI), 48 h
# M19-MEL = system: M19-MEL
# LXFL 529 = system: LXFL 529
# HOP-18 = system: HOP-18
# KM-20L2 = system: KM-20L2
# BT-549 = system: BT-549
# Hs-578T = system: Hs-578T
# XF498 = system: XF498
# DMS-273 = system: DMS-273
# RXF 631 = system: RXF 631
Structure (SMILES),GI50 (BT-549),GI50 (Hs-578T),other results
CC(=O)OC1CC(n2cc(F)c(=O)[nH]c2=O)OC1CO (stereo unspecified),5.5 µM (inactive),7.4 µM (inactive),GI50 (M19-MEL): > 100 µM (inactive); GI50 (LXFL 529): 0.575 µM (active); GI50 (HOP-18): 6.61 µM (inactive); GI50 (KM-20L2): 0.962 µM (active); GI50 (XF498): 13.7 µM (inactive); GI50 (DMS-273): 0.331 µM (active)
CC(C)NCC(O)c1ccc(O)c2ncccc12 (stereo unspecified),> 100 µM (inactive),> 100 µM (inactive),–
C[C@H](CCC(=O)O)[C@H]1CC[C@H]2[C@@H]3[C@H](O)C[C@@H]4C[C@H](O)CC[C@]4(C)[C@H]3CC[C@]12C [CHENODIOL],36.3 µM (inactive),–,–
CC(=O)NC1(C)CCC(C(C)(C)NC(C)=O)CC1 (stereo unspecified),> 100 µM (inactive),> 100 µM (inactive),–
CN(C(=O)C1CC1)C1C2CN3CCC(O2)C13 (stereo unspecified),–,–,GI50 (M19-MEL): > 100 µM (inactive); GI50 (LXFL 529): > 100 µM (inactive); GI50 (HOP-18): > 100 µM (inactive); GI50 (KM-20L2): > 100 µM (inactive); GI50 (DMS-273): > 100 µM (inactive)
C[N+](C)(C)CC(=O)N/N=C\c1c(O)ccc2ccccc12,–,14.4 µM (inactive),–
O=C(Nc1sccc1S(=O)(=O)c1ccc(Cl)cc1)c1ccc(Cl)cc1,> 100 µM (inactive),51.3 µM (inactive),–
N=C(N)NC(=N)Nc1ccc(S(N)(=O)=O)cc1,> 100 µM (inactive),> 100 µM (inactive),–
Oc1nc(S)nc2c1CCCN2,–,–,GI50 (M19-MEL): > 100 µM (inactive); GI50 (LXFL 529): > 100 µM (inactive); GI50 (HOP-18): > 100 µM (inactive); GI50 (RXF 631): > 100 µM (inactive)
NS(=O)(=O)c1cccc(NC(=S)NC(=O)Nc2ccc(Cl)c(Cl)c2)c1,16.1 µM (inactive),17 µM (inactive),–
CC1(O)Oc2ccc3ccccc3c2C=C1C(N)=O (stereo unspecified),–,> 100 µM (inactive),–
CC(=O)Nc1ccc(C(=O)NN2C(=O)C(Cl)C2c2ccc(Cl)cc2)cc1 (stereo unspecified),72.6 µM (inactive),8.83 µM (inactive),GI50 (M19-MEL): > 100 µM (inactive); GI50 (LXFL 529): 50.6 µM (inactive); GI50 (HOP-18): 64.4 µM (inactive)
COc1ccc(C(C)c2cc3c(cc2OC)OCO3)cc1 (stereo unspecified),51.8 µM (inactive),0.0207 µM (active),GI50 (M19-MEL): 0.395 µM (active); GI50 (LXFL 529): 0.125 µM (active); GI50 (HOP-18): 0.371 µM (active); GI50 (KM-20L2): 0.225 µM (active); GI50 (DMS-273): 0.106 µM (active)
Brc1cccc[n+]1-c1ccc2cc(-[n+]3ccccc3Br)ccc2c1,97.9 µM (inactive),56.9 µM (inactive),–
CC(=O)c1c(O)c(C)c(O)c(Cc2c(O)c3c(c(C(=O)/C=C/c4ccccc4)c2O)OC(C)(C)C=C3)c1O [ROTTLERIN],2.51 µM (inactive),3.65 µM (inactive),–
COc1ccc(C2=C3SC=c4ccccc4=C3ON=C2c2ccccc2)cc1,> 100 µM (inactive),> 100 µM (inactive),–

Structure (SMILES),GI50 (BT-549),GI50 (Hs-578T),other results
Cc1ccc(C2(c3ccc(F)cc3)OC(=O)c3ccccc32)c(O)c1 (stereo unspecified),19.7 µM (inactive),20.1 µM (inactive),–
CC1(C)OC2C(O)C(CO)OC2(C(F)F)O1 (stereo unspecified),> 100 µM (inactive),> 100 µM (inactive),–
Nc1ccc(C(=O)NN2C(=O)C(Cl)C2c2ccccc2O)cc1 (stereo unspecified),–,–,GI50 (M19-MEL): 49.1 µM (inactive); GI50 (LXFL 529): 54.2 µM (inactive); GI50 (KM-20L2): 70 µM (inactive); GI50 (XF498): 37.3 µM (inactive); GI50 (DMS-273): 55.2 µM (inactive)
COc1nc(NC2OCC(OC(C)=O)C(OC(C)=O)C2OC(C)=O)c(/N=C\C=N\c2c(NC3OCC(OC(C)=O)C(OC(C)=O)C3OC(C)=O)nc(OC)n(C)c2=O)c(=O)n1C (stereo unspecified),–,–,GI50 (M19-MEL): > 100 µM (inactive); GI50 (LXFL 529): > 100 µM (inactive); GI50 (HOP-18): > 100 µM (inactive); GI50 (KM-20L2): > 100 µM (inactive); GI50 (XF498): 17.9 µM (inactive); GI50 (DMS-273): > 100 µM (inactive)
S=C(S)NCCN1CCNCC1,88.1 µM (inactive),> 100 µM (inactive),–
C[N+](C)(C)CC(=O)N/N=C(\Cc1nc2ccc([N+](=O)[O-])cc2nc1O)C(=O)Nc1nc2ccc([N+](=O)[O-])cc2s1,29.3 µM (inactive),–,–
CCOC(=O)c1ccc(-c2cccs2)[nH]1,> 63.1 µM (inactive),76.9 µM (inactive),–
C=C1C(=O)O[C@@H]2C[C@@H]3[C@]4(CC[C@]5(C)[C@@H]([C@H](C)CC/C=C(\C)C=O)CC[C@@]35C)C[C@]4(CCC(=O)OC)[C@H]12,2.03 µM (inactive),3.01 µM (inactive),–
Cl.O=C(O)c1cccnc1,–,> 100 µM (inactive),–
CC1=CC(=O)/C(=C/NC(=S)NCCc2ccccc2)C(=O)O1,53.7 µM (inactive),–,–
CC1=C2O[C@]3(O)C=C2C(=C(O)C1=O)[C@@H]1O[C@H](CC[C@H](C)/C=C(\C)C[C@@H](C)C[C@@H]3C)[C@H](C)[C@H](O)[C@H]1C [KENDOMYCIN],0.331 µM (active),0.289 µM (active),–
Cn1c2c(c3ccccc31)CCN(CCCCN1CCN(c3cccc(Cl)c3)CC1)C2=O,–,–,GI50 (M19-MEL): 11.5 µM (inactive); GI50 (LXFL 529): 11.1 µM (inactive); GI50 (HOP-18): 29 µM (inactive); GI50 (KM-20L2): 4.17 µM (inactive); GI50 (XF498): 14.4 µM (inactive); GI50 (DMS-273): 9.06 µM (inactive)
Nn1c(Cc2ccccc2)n[nH]c1=O,> 100 µM (inactive),> 100 µM (inactive),–
O=C(/C=C/c1c(O)nc2ccccc2c1O)CC(=O)C(=O)Nc1cccc(O)c1,> 100 µM (inactive),> 100 µM (inactive),–
CC(=O)Nc1ccc(C(O)/C(=N/N)c2nc3ccc(Cl)cc3nc2O)cc1 (stereo unspecified),> 100 µM (inactive),> 100 µM (inactive),–
